Assay results as given in the OligoGym collection.
Several values for one entry are separate records, joined by “and”; a condition that tells them apart may be missing. Equal values may be shown once. After the bases stand the sugars from the 5' end (letter, count) and the backbone: PS all phosphorothioate, else s phosphorothioate and o phosphodiester by linkage. Methylation of C is not given here. k = constrained ethyl (cEt); d = 2'-deoxy (DNA)

Target: MALAT1
Details: ASO, A431, 0.005 µM

TCTGAGTGAAGTGTAC (sugars k3 d10 k3, PS)
target mRNA inhibition: 34%

AAAAAGGCTCGATGGA (sugars k3 d10 k3, PS)
target mRNA inhibition: 52%

CTACAGACAAACACTA (sugars k3 d10 k3, PS)
target mRNA inhibition: 6%

GCCTGCTACCTTCATC (sugars k3 d10 k3, PS)
target mRNA inhibition: 36%

CGTCCCCATATAAATC (sugars k3 d10 k3, PS)
target mRNA inhibition: 1%

GCCCGCTTTCCCCCTT (sugars k3 d10 k3, PS)
target mRNA inhibition: -29%

TACGCAACTGAGCCCC (sugars k3 d10 k3, PS)
target mRNA inhibition: 0%

GGATTAATGTAGTGTA (sugars k3 d10 k3, PS)
target mRNA inhibition: 86% and 96%

CTGAAGTCAAGACAAC (sugars k3 d10 k3, PS)
target mRNA inhibition: -17%

CATTGGGAGTTACTTG (sugars k3 d10 k3, PS)
target mRNA inhibition: 32%

TGAGTATAAGCCTGAA (sugars k3 d10 k3, PS)
target mRNA inhibition: 25%

ACATATTTTGCCCCCA (sugars k3 d10 k3, PS)
target mRNA inhibition: 19%

CCACCCTCTAAGAGAC (sugars k3 d10 k3, PS)
target mRNA inhibition: -17%

CTCTAATCACTGTCAA (sugars k3 d10 k3, PS)
target mRNA inhibition: 11%

CAAGATTGCCCCAACA (sugars k3 d10 k3, PS)
target mRNA inhibition: 12%

TGTTAACAGCTGCCTG (sugars k3 d10 k3, PS)
target mRNA inhibition: 39%

AGCTTGGCCAAGTCTG (sugars k3 d10 k3, PS)
target mRNA inhibition: 28%

GCACTGATCACTTTAG (sugars k3 d10 k3, PS)
target mRNA inhibition: 63% and 47% and 50%

GTCACTGGATAAGTAT (sugars k3 d10 k3, PS)
target mRNA inhibition: 48%

TTGAATTACTTCCGTT (sugars k3 d10 k3, PS)
target mRNA inhibition: 54% and 35%

CTTCGGTGCCTTTAGT (sugars k3 d10 k3, PS)
target mRNA inhibition: 23%

CATCAGTAGTAAGAAT (sugars k3 d10 k3, PS)
target mRNA inhibition: 14%

CCCCATTATATTAGAA (sugars k3 d10 k3, PS)
target mRNA inhibition: -6%

CCCCACGCCAACACAG (sugars k3 d10 k3, PS)
target mRNA inhibition: 10%

CTTTCCATTACGCAAC (sugars k3 d10 k3, PS)
target mRNA inhibition: 0%

AATCCCTTTACACCTC (sugars k3 d10 k3, PS)
target mRNA inhibition: 26%

ATAAGCACTTATCCCT (sugars k3 d10 k3, PS)
target mRNA inhibition: 50%

GATTAATGTAGTGTAA (sugars k3 d10 k3, PS)
target mRNA inhibition: 23%

CTTGATCCCAACTCAT (sugars k3 d10 k3, PS)
target mRNA inhibition: 11%

GGACAGCTAAGATAGC (sugars k3 d10 k3, PS)
target mRNA inhibition: 22%

ATTGGTTACCAATAAT (sugars k3 d10 k3, PS)
target mRNA inhibition: 4%

TTCACCAAGGAGCTGT (sugars k3 d10 k3, PS)
target mRNA inhibition: 37%

ACCTTGGGCAGCCAGT (sugars k3 d10 k3, PS)
target mRNA inhibition: -4%

CAATTTACATCACAAC (sugars k3 d10 k3, PS)
target mRNA inhibition: 45%

CAGAAAAAGCTTGTTC (sugars k3 d10 k3, PS)
target mRNA inhibition: 37%

ACCTTCTGAACCGGAG (sugars k3 d10 k3, PS)
target mRNA inhibition: 22%

TCTAGGCCATCATACT (sugars k3 d10 k3, PS)
target mRNA inhibition: 40%

CCCGCACGGAAATTTT (sugars k3 d10 k3, PS)
target mRNA inhibition: 17%

GGAGGCAAAAAGTAGT (sugars k3 d10 k3, PS)
target mRNA inhibition: 9%

AAAGCCCACCCTCTAA (sugars k3 d10 k3, PS)
target mRNA inhibition: -26%

GACCAAACTGCAGAGT (sugars k3 d10 k3, PS)
target mRNA inhibition: 3%

TAAAGTAAATAGGCTA (sugars k3 d10 k3, PS)
target mRNA inhibition: 21%

GCTTTAAATGACGCAA (sugars k3 d10 k3, PS)
target mRNA inhibition: -22%

AATTCGATCACCTTCC (sugars k3 d10 k3, PS)
target mRNA inhibition: 16%

CAAAATGGCGGACTTT (sugars k3 d10 k3, PS)
target mRNA inhibition: 17%

GGCCGTTGGCTGCCAG (sugars k3 d10 k3, PS)
target mRNA inhibition: 21%

GTTATGACTCAGAAGA (sugars k3 d10 k3, PS)
target mRNA inhibition: 26%

CAACTAAGCGAATGGC (sugars k3 d10 k3, PS)
target mRNA inhibition: 24%

TAAGAACTCCACAGCT (sugars k3 d10 k3, PS)
target mRNA inhibition: 41%

GTTACCATAAGTAAGT (sugars k3 d10 k3, PS)
target mRNA inhibition: 2%

ACAAACTTGCCATCTA (sugars k3 d10 k3, PS)
target mRNA inhibition: 39%

CTTCAACTGGGAATAC (sugars k3 d10 k3, PS)
target mRNA inhibition: 7%

TCATCAACAAAAGCCC (sugars k3 d10 k3, PS)
target mRNA inhibition: -8%

TTTGAACCCCGTCCTG (sugars k3 d10 k3, PS)
target mRNA inhibition: 6%

GGCTGACACTTCTCTT (sugars k3 d10 k3, PS)
target mRNA inhibition: 52% and 64%

TAACTTCCCCCAGCTT (sugars k3 d10 k3, PS)
target mRNA inhibition: 20%

AGTTTATCTGCAATCA (sugars k3 d10 k3, PS)
target mRNA inhibition: 46% and 59%

GCTGAGGCTTCCCGGC (sugars k3 d10 k3, PS)
target mRNA inhibition: 15%

TCTGTTATGTTCACCT (sugars k3 d10 k3, PS)
target mRNA inhibition: 52%

AGCCTATAAGGACAGC (sugars k3 d10 k3, PS)
target mRNA inhibition: 23%

GGTAATTACTCTTGAT (sugars k3 d10 k3, PS)
target mRNA inhibition: 50%

GGGAGTTGAGGCAAGT (sugars k3 d10 k3, PS)
target mRNA inhibition: 6%

AAACGAAACATTGGCA (sugars k3 d10 k3, PS)
target mRNA inhibition: 46%

TCATTAAGCCACTTCC (sugars k3 d10 k3, PS)
target mRNA inhibition: 19%

TCTGTGTTATGCCTGG (sugars k3 d10 k3, PS)
target mRNA inhibition: 17%

GTAACCTATTGACTAT (sugars k3 d10 k3, PS)
target mRNA inhibition: 33%

TGCTCCCCGCCTGAGC (sugars k3 d10 k3, PS)
target mRNA inhibition: 24%

AGTCCAATGCAAAAAC (sugars k3 d10 k3, PS)
target mRNA inhibition: 23%

ATTTTAAAAAGGCTCG (sugars k3 d10 k3, PS)
target mRNA inhibition: 27%

CATCCAAACTCTACAT (sugars k3 d10 k3, PS)
target mRNA inhibition: 23%

TTCAATCACAAATACG (sugars k3 d10 k3, PS)
target mRNA inhibition: 19%

AATGTACTCAGCTTCA (sugars k3 d10 k3, PS)
target mRNA inhibition: 48%

AAGAATCCCCCCCAAG (sugars k3 d10 k3, PS)
target mRNA inhibition: 28%

GCTTGGGAAATCTTAG (sugars k3 d10 k3, PS)
target mRNA inhibition: 7%

GACAGTAGGTATAGTT (sugars k3 d10 k3, PS)
target mRNA inhibition: -13%

ATGCACTGGTACACCC (sugars k3 d10 k3, PS)
target mRNA inhibition: 24%

TACCATATCCAAACAA (sugars k3 d10 k3, PS)
target mRNA inhibition: 11%

TCTTCCGCTCAAATCC (sugars k3 d10 k3, PS)
target mRNA inhibition: 41%

ACAACAATTTAGAGCT (sugars k3 d10 k3, PS)
target mRNA inhibition: 11%

CCTGATCTGGTCCATT (sugars k3 d10 k3, PS)
target mRNA inhibition: 44%

TTAAGAGCTGCTATAA (sugars k3 d10 k3, PS)
target mRNA inhibition: 6%

AATTTAGAGCTTCTCC (sugars k3 d10 k3, PS)
target mRNA inhibition: 21%

CCTACCGCACAGCTCG (sugars k3 d10 k3, PS)
target mRNA inhibition: 3%

TTAGTTGGCATCAAGG (sugars k3 d10 k3, PS)
target mRNA inhibition: 74% and 70%

TTCGGATGCTTCACTC (sugars k3 d10 k3, PS)
target mRNA inhibition: 48%

ACCACTCTAAGATTGT (sugars k3 d10 k3, PS)
target mRNA inhibition: -11%

CTTCGGTTTAATCTCT (sugars k3 d10 k3, PS)
target mRNA inhibition: 73% and 54%

GTATTACTCTAATCAC (sugars k3 d10 k3, PS)
target mRNA inhibition: 34%

TTACGCAACTGAGCCC (sugars k3 d10 k3, PS)
target mRNA inhibition: 11%

GCACGGAAATTTTTCT (sugars k3 d10 k3, PS)
target mRNA inhibition: -3%

AGCTTGTTCACCTGTT (sugars k3 d10 k3, PS)
target mRNA inhibition: 37%

TGAGGCAAACGAAACA (sugars k3 d10 k3, PS)
target mRNA inhibition: 16%

ATATAAGGTCAATAGT (sugars k3 d10 k3, PS)
target mRNA inhibition: 16%

TCAAGTGGCCTTTTAA (sugars k3 d10 k3, PS)
target mRNA inhibition: -38%

CCTCACGGATTTTTAC (sugars k3 d10 k3, PS)
target mRNA inhibition: -1%

GCTTATGGAACTTGAA (sugars k3 d10 k3, PS)
target mRNA inhibition: 10%

AACCACTCGCTTTCCC (sugars k3 d10 k3, PS)
target mRNA inhibition: 41%

CTAAGAGACATTCAAG (sugars k3 d10 k3, PS)
target mRNA inhibition: 27%

ACCAGGAGTGCCAACC (sugars k3 d10 k3, PS)
target mRNA inhibition: 8%

TGCAGTCCTGCGACTT (sugars k3 d10 k3, PS)
target mRNA inhibition: 15%

AACCAACTTCCCCTTC (sugars k3 d10 k3, PS)
target mRNA inhibition: 16%

CAAACTGCTTACAGAT (sugars k3 d10 k3, PS)
target mRNA inhibition: 31%

GGAGTTACTTGCCAAC (sugars k3 d10 k3, PS)
target mRNA inhibition: 24%

CCTTAGTTGGCATCAA (sugars k3 d10 k3, PS)
target mRNA inhibition: 82% and 63%

TAGATTCACTGAATCC (sugars k3 d10 k3, PS)
target mRNA inhibition: -4%

GAACAAGTCCTACAAT (sugars k3 d10 k3, PS)
target mRNA inhibition: 32%

TTGTCCTACTTTAAGC (sugars k3 d10 k3, PS)
target mRNA inhibition: 30%

TTATAGACCCCTGACT (sugars k3 d10 k3, PS)
target mRNA inhibition: 10%

GTGGCCTTTTAAAGTA (sugars k3 d10 k3, PS)
target mRNA inhibition: 15%

AAAGGTTACCATAAGT (sugars k3 d10 k3, PS)
target mRNA inhibition: 5%

ATTTATTTCGGCTTCT (sugars k3 d10 k3, PS)
target mRNA inhibition: 71% and 90%

ACTACCATATCCAAAC (sugars k3 d10 k3, PS)
target mRNA inhibition: 27%

TTACCCCAACTAAACA (sugars k3 d10 k3, PS)
target mRNA inhibition: -4%

CCACTCTTGGAAAACG (sugars k3 d10 k3, PS)
target mRNA inhibition: 23%
